Measured values reported in paper PMC12521527, “In vivo self-assembled nano-PROTAC for the dual degradation of AR and HSP90 to overcome castration-resistant prostate cancer resistance” (Signal Transduction and Targeted Therapy, 2025).
Numbered stars: 1 amine (or outer) side, 2 acyl side, 3 side chain; on linkers, the order of the positions; unused ones are H or OH. Square brackets hold non-standard residues; d marks the D form. Peptide text beside a SMILES is read from it. * marks the point of attachment. X2 = CC1(C)C(=O)N(c2ccc(C#N)c(C(F)(F)F)c2)C(=S)N1c1ccc(C(=O)*)c(F)c1; X1 = O=C1CCC(N2C(=O)c3cccc(N(CC(=O)[*:2])[*:1])c3C2=O)C(=O)N1; EuK = O=C(O)CC[C@H](NC(=O)N[C@@H](CCCCN*)C(=O)O)C(=O)O; 2Nal = N[C@@H](Cc1ccc2ccccc2c1)C(=O)O

Columns and labels:
[1] = tested on: 22Rv1 xenograft tumor; experiment: Antitumor efficacy in 22Rv1 xenograft mice; format: in vivo, BALB/c nude mice; conditions: for tumor volume / median survival: n = 6
Description: To evaluate the therapeutic potential and superiority of Psa-AR in prostate cancer, we established subcutaneous xenograft tumor models using AR-mutant 22Rv1 cells.[51] All procedures strictly complied with the Guide for the Care and Use of Laboratory Animals and were approved by the Committee for Animal Research of the National Center for Nanoscience and Technology. When the tumor volume reached ~100 mm³, 22Rv1-bearing mice were randomized into three groups (n = 6/group): the PBS control, Psa-AR, and P-AR groups. Treatments were administered via tail vein injection every other day for five cycles. The tumor volume and body weight were monitored every other day for 20 days (Fig. 6a). […] The individual tumor growth curves for each group are presented in Supplementary Fig. 20. No obvious body weight loss was observed during treatment (Fig. 6c). […] To elucidate the mechanistic basis of tumor suppression, we quantitatively assessed AR and HSP90 protein expression in excised tumor tissues through IF. […] This dual-target degradation profile directly correlates with the observed therapeutic efficacy, validating the assembly driven target engagement and degradation strategy. […] To address the critical limitations of conventional PROTACs, particularly the Hook effect-induced nonlinear pharmacokinetics and narrow therapeutic window. We rigorously evaluated the dose-responsive antitumor efficacy of Psa-AR in 22Rv1 xenograft models. Mice bearing subcutaneous tumors received escalating doses (10, 20, or 30 mg/kg) via intravenous administration every 48 h for five consecutive treatment cycles. The tumor volume and body weight were evaluated for 20 days. Tumor volume was suppressed in a dose-dependent manner, with a mean tumor volume of […], a mean tumor volume of 536 mm^3 at 20 mg/kg and a mean tumor volume of 220 mm^3 at 10 mg/kg (Fig. 6h). The individual tumor growth curves for each group are presented in Supplementary Fig. 21. […] IF analysis of tumor sections provided spatially resolved dose-dependent quantification of AR and HSP90 proteolysis. […] Collectively, the dose-dependent tumor suppression and coordinated target proteolysis observed in the 22Rv1 xenograft model mechanistically validated the therapeutic superiority of in situ self-assembled Psa-AR. To systematically evaluate the therapeutic advantages of the dual-protein targeting strategy of Psa-AR through simultaneous degradation of AR and HSP90 in overcoming tumor drug resistance, this study compared the antitumor efficacy of Psa-AR with that of current clinical regimens (including the AR inhibitor enzalutamide, the HSP90 inhibitor pimitespib, and their combination) in 22Rv1 xenograft models (Fig. 7a). The experimental protocol was designed as follows: When the tumor volume reached ~100 mm³, the tumor-bearing mice were
Fig. 6 In vivo antitumor efficacy of Psa-AR. a Schematic illustration of the tumor inoculation and treatment protocol for 22Rv1 xenograft mice. (n = 6 per group) b Observation of the tumor inhibitory effect on 22Rv1 xenograft mice in PBS, P-AR, or Psa-AR (20 mg/kg in 200 μL of PBS) over 20 days of treatment. c Body weight changes in 22Rv1 xenograft mice in different treatment groups over 20 days. d Kaplan‒Meier survival curves of 22Rv1 xenograft mice in different groups over 20 days of treatment. e Immunofluorescence analysis of AR protein levels in 22Rv1 tumor tissues after treatment with PBS, P-AR, or Psa-AR (20 mg/kg in 200 μL of PBS) for 20 days. Scale bar: 20 μm. f Immunofluorescence analysis of the HSP90 protein levels in 22Rv1 tumor tissues after treatment with PBS, P-AR, or Psa-AR (20 mg/kg in 200 μL of PBS) for 20 days. Scale bar: 20 μm. g Terminal deoxynucleotidyl transferase (TdT) dUTP nick-end labeling (TUNEL) staining of tumors after treatment with PBS, P-AR, or Psa-AR (20 mg/kg in 200 μL of PBS) for 20 days. […]

[2] = tested on: HSP90; experiment: Western blot HSP90 degradation in 22Rv1 cells; format: cell-based
Method: All uncropped blots are presented in Supplementary Fig. 26. j, k Representative 22Rv1 cell CLSM images of the degradation of AR after incubation with FITC-labeled Psa-AR for 12 h and quantitative analysis, n = 3 per group. Scale bar: 10 μm. l, m Representative 22Rv1 cell CLSM images of the degradation of HSP90 after incubation with FITC-labeled Psa-AR for 12 h and quantitative analysis, n = 3 per group. Scale bar: 10 μm. n AR-V7 expression in 22Rv1 cells after treatment with PBS, P-AR (20 μM), Psa-AR (20 μM) or Psa-AR (20 μM) combined with MG132 (2 μM) for 48 h, as determined by western blotting. β-Actin was used as an internal reference. o Results of apoptosis in 22Rv1 cells treated with PBS, P-AR (20 μM), or Psa-AR (20 μM) for 48 h, as detected by flow cytometry.
The pretreated cells were resuspended in lysis buffer containing 50 mM Tris-HCl (pH 8.0), 150 mM NaCl, 1% (v/v) Triton X-100, and protease inhibitors. The protein concentration was determined via a BCA kit (Applygen). Each sample ([…]) was subjected to SDS‒PAGE and then transferred to a PVDF membrane. The blots were blocked in 5% (wt/v) blocking buffer. After washing three times with TBST buffer (10 mM TBS solution containing 0.1% (v/v) Tween-20), the blots were incubated with primary antibodies at 4 °C on a shaker for 16 h. […]

`CC1(C)C(=O)N(c2ccc(C#N)c(C(F)(F)F)c2)C(=S)N1c1ccc(C(=O)NCCCC[C@H](NC(=O)CNc2cccc3c2C(=O)N(C2CCC(=O)NC2=O)C3=O)C(=O)N[C@@H](CS)C(=O)N[C@@H](CCC(N)=O)C(=O)N[C@@H](Cc2ccc(O)cc2)C(=O)N[C@@H](CC(N)=O)C(=O)N[C@@H](CCC(N)=O)C(=O)N[C@@H](Cc2ccc(O)cc2)C(=O)N[C@@H](Cc2ccc(O)cc2)C(=O)N[C@@H](Cc2ccc3ccccc3c2)C(=O)NCCCC[C@H](NC(=O)N[C@@H](CCC(=O)O)C(=O)O)C(=O)O)c(F)c1` (stereo partly shown) [Psa-AR] (H-[X1]K(X2)CQYNQYY[2Nal]-EuK) was tested, and the “extension of median survival compared with P-AR controls” value ([1]; 20 mg/kg study) was 1.8 fold, the “extension of median survival compared with PBS controls” value ([1]; 20 mg/kg study) was 2.2 fold and the tumor volume ([1]; 20 mg/kg tail vein every other day, five cycles, 20 days, PBS 1003 mm^3) was 347 mm^3. For the same molecule, the “TUNEL apoptotic index of tumor sections” value ([1]; 20 mg/kg, 20 days, compared with PBS control and P-AR) was “significant increase in the apoptotic index”, the “AR and HSP90 protein expression in excised tumor tissues” value ([1]; IF, 20 mg/kg, 20 days) was “AR and HSP90 reduction” and the median survival ([1]; K-M analysis, 20 mg/kg study, PBS 22 days) was 48 days. For the same molecule, the “TUNEL analysis of tumor tissue sections” value ([1]; comparison study, 30 mg/kg, 20 days) was “increased activation of tumor apoptosis”, the tumor volume ([1]; comparison study, 20 days, Psa-AR 30 mg/kg i.v. every 2 days x5, enzalutamide 25 mg/kg, pimitespib 15 mg/kg, PBS 1017 mm^3) was 220 mm^3 and the median survival ([1]; comparison study, PBS 21 days) was 46 days. The “body weight during the monitoring cycle” value ([1]; dose study, 10, 20, or 30 mg/kg, 20 days) was “no significant change in the body weight”, the “mean tumor volume at 20 mg/kg” value ([1]; dose study, intravenous every 48 h, five cycles, 20 days) was 536 mm^3 and the HSP90 degradation ([2]; 22Rv1, 20 μM, 48 h, western blot) was > 60%. The “sustained HSP90 protein clearance over 96 h” value ([2]; 22Rv1, optimal concentrations, 96 h) was 78%.
